Data taken from patent US4175081A, “5-Substituted thiadiazole ureas” (priority 1977, dated 1979).

What was measured:
Turnip (TP) [1] = test: Pre-emergence herbicide test; assay type: in vivo, Brassica sp.; details: Brassica rapa, pre-emergence, 336 h, two weeks after treatment
In short: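 Turnip (Brassica sp.) seeds were surface sown in 3' plastic pots of potting soil, covered with a thin layer of screened soil, and sub-irrigated in greenhouse trays. Pots were seeded one day ahead of treatment, sprayed pre-emergence under a hood with a fixed nozzle and moving belt, then kept in the greenhouse.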

Bean (BN) [2] = test: Pre-emergence herbicide test; assay type: in vivo, Phaseolus vulgaris var. Black Valentine; details: Phaseolus vulgaris, 336 h, two weeks after treatment
In short: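 Black Valentine bean was seeded in potting soil one day before spraying. Compound was applied pre-emergence at 8 lbs/acre (also 4 lbs/acre) in 38 gallons per acre. Plants were sub-irrigated and injury or control was rated visually after two weeks.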

Crabgrass (CG) [3] = test: Pre-emergence herbicide test; assay type: in vivo, Digitaria sanquinalis; details: Digitaria sanguinalis, pre-emergence, 336 h, two weeks after treatment
In short: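 Crabgrass (Digitaria sanquinalis) was surface seeded in 3' plastic pots of potting soil, covered with screened soil, and watered by sub-irrigation in greenhouse trays. Pots were seeded one day before spraying in a hood with a moving belt and fixed nozzle. Plants stayed in the greenhouse on sub-irrigation, and pre-emergence control was rated visually two weeks after treatment.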

Crabgrass (CG) [4] = test: Post-emergence herbicide test; assay type: in vivo, Digitaria sanquinalis; details: Digitaria sanguinalis, post-emergence, 336 h, two weeks after treatment
In short: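 Crabgrass (Digitaria sanquinalis) was surface seeded individually in 3' plastic pots of potting soil, covered with screened soil, and watered by sub-irrigation in greenhouse trays. Planting was staggered so seedlings reached the target stage together. Post-emergence sprays were applied in a hood with a removable belt and fixed nozzle, and control was visually rated two weeks after treatment.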

Cotton (CT) [5] = test: Pre-emergence herbicide test; assay type: in vivo, Gossypium hirsutum var. DPL smooth leaf; details: Gossypium hirsutum, 336 h, two weeks after treatment
In short: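 Crop and weed species seeded one day before treatment, then sprayed pre-emergence at 8 lbs actual compound per acre (also 4 lbs/acre formulations) in 38 gallons per acre. Pots kept in greenhouse with sub-irrigation only; injury or control visually rated two weeks after treatment.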

Turnip (TP) [6] = test: Post-emergence herbicide test; assay type: in vivo, Brassica sp.; details: Brassica rapa, post-emergence, 336 h, two weeks after treatment
In short: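 A greenhouse post-emergence herbicide test on turnip. Seeds were sown on the surface of potting soil in 3' plastic pots, lightly covered with screened soil and watered from below. Planting was timed so seedlings had 1 or 2 true leaves above the cotyledons at spraying, done in a hood with a fixed nozzle. Control or injury was scored by eye after two weeks.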

Johnson grass (JG) = test: Pre-emergence herbicide test; assay type: in vivo, Sorgum helepense; details: Sorghum halepense, 336 h, two weeks after treatment
In short: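 Pots seeded one day before spraying; compound applied pre-emergence at 8 lbs/acre (or 4 lbs/acre) in 38 gallons/acre spray volume. Sub-irrigated in greenhouse; injury/control rated visually two weeks after treatment.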

Bean (BN) [7] = test: Post-emergence herbicide test; assay type: in vivo, Phaseolus vulgaris var. Black Valentine; details: Phaseolus vulgaris, post-emergence, 336 h, two weeks after treatment
In short: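 Snapbean (Phaseolus vulgaris var. Black Valentine) was tested post-emergence. Four seeds were sown in 3' plastic pots of potting soil at a depth equal to the seed diameter, then sub-irrigated in greenhouse trays. Planting dates were staggered so plants were sprayed once primary leaves had expanded, with the growing point at the primary leaf nodes.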

Amaranth pigweed (PW) = test: Pre-emergence herbicide test; assay type: in vivo, Amaranthus retroflexus; details: 336 h, two weeks after treatment
Experimental: All crop and weed species were planted individually in 3' plastic pots containing potting soil. Four seeds each of corn, cotton, and snapbeans were seeded to a depth equal to the diameter of the seed. All other species were surface seeded and sprinkled with screened soil in an amount sufficient to cover the seed. Immediately after planting, all pots were watered by sub-irrigation in greenhouse trays. Pots for the pre-emergence phase were seeded one day before treatment.
Compounds were tested at rates of application equivalent to 8 lbs. of actual compound per acre in a spray volume of 38 gallons per acre. Spray hood constants required to deliver the above volume are as follows:
Formulations for spray applications were prepared in 50 ml volumes with the following three components:
Formulations for the 4 lbs/acre rate were prepared by adjusting the amount of active ingredient accordingly.
Spray applications were made in a hood containing a removable belt and fixed spray nozzle. For passage through the spray hood, one pot of each specie (pre-emergence phase) was placed on the rear half of the flat. Treatments were removed to the greenhouse after spraying. Watering during the observation period was done only by sub-irrigation.
Two weeks after treatment, pre- and post-emergence injury or control was visually rated, and the results were as shown in the following tables. Pre-emergence data are provided in TABLE III and post-emergence data are provided in TABLE IV, for compounds having the formula illustrated in TABLE I. Correspondingly, pre-emergence and post-emergence data, respectively, are set forth in TABLES V AND VI, for compounds having the formula illustrated in TABLE II.

Corn (CN) = test: Pre-emergence herbicide test; assay type: in vivo; details: Zea mays, 336 h, two weeks after treatment
In short: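 Four corn seeds per pot, sown at seed-diameter depth one day before spraying, got soil surface treatment at 8 lbs/acre (4 lbs/acre formulations also prepared) in 38 gallons/acre. Pots were greenhouse-held with sub-irrigation only. Injury or control was scored visually two weeks after treatment.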

Barnyard grass (BG) = test: Pre-emergence herbicide test; assay type: in vivo; details: Echinochloa crus-galli, 336 h, two weeks after treatment
In short: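 Barnyard grass surface-seeded in potting soil and sprayed pre-emergence one day after seeding, at 8 or 4 lb compound/acre in 38 gal/acre spray volume. Pots kept in greenhouse with sub-irrigation only; injury or control rated visually two weeks after treatment.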

Cotton (CT) [8] = test: Post-emergence herbicide test; assay type: in vivo, Gossypium hirsutum var. DPL smooth leaf; details: Gossypium hirsutum, post-emergence, 336 h, two weeks after treatment
In short: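 Cotton (Gossypium hirsutum var. DPL smooth leaf) was grown in 3' plastic pots of potting soil, four seeds per pot, planted at a depth equal to the seed diameter and watered by sub-irrigation. At the stage of expanded cotyledons with the first true leaf 1' long, plants were sprayed post-emergence in a hood with a fixed nozzle over a moving belt. Percent control was rated visually two weeks later.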

`CCCCS(=O)(=O)c1nnc(N(C)C(=O)NC)s1` [Example 92] showed a pest or weed control at 560.425 g/ha (Turnip (TP) [1]; 0.5 lb/acre) of 10%, a pest or weed control at 1120.85 g/ha (Turnip (TP) [1]; 1 lb/acre) of 60% and a pest or weed control at 2241.7 g/ha (Turnip (TP) [1]; 2 lb/acre) of 90%. For the same compound, the pest or weed control at 4483.4 g/ha (Turnip (TP) [1]; 4 lb/acre) was 90%, the pest or weed control at 560.425 g/ha (Bean (BN) [2]; 0.5 lb/acre) was 10% and the pest or weed control at 1120.85 g/ha (Bean (BN) [2]; 1 lb/acre) was 10%. For the same compound, the pest or weed control at 2241.7 g/ha (Bean (BN) [2]; 2 lb/acre) was 10%, the pest or weed control at 4483.4 g/ha (Bean (BN) [2]; 4 lb/acre) was 10% and the pest or weed control at 560.425 g/ha (Crabgrass (CG) [3]; 0.5 lb/acre) was 40%. For the same compound, the pest or weed control at 1120.85 g/ha (Crabgrass (CG) [3]; 1 lb/acre) was 60%, the pest or weed control at 2241.7 g/ha (Crabgrass (CG) [3]; 2 lb/acre) was 100% and the pest or weed control at 4483.4 g/ha (Crabgrass (CG) [3]; 4 lb/acre) was 100%. The pest or weed control at 560.425 g/ha (Crabgrass (CG) [4]; 0.5 lb/acre) was 30%, the pest or weed control at 1120.85 g/ha (Crabgrass (CG) [4]; 1 lb/acre) was 30% and the pest or weed control (Crabgrass (CG) [4]; 2 lb/acre) was 90%. It also gave a pest or weed control at 4483.4 g/ha (Crabgrass (CG) [4]; 4 lb/acre) of 90%, a pest or weed control at 560.425 g/ha (Cotton (CT) [5]; 0.5 lb/acre) of 10% and a pest or weed control at 1120.85 g/ha (Cotton (CT) [5]; 1 lb/acre) of 10%. The pest or weed control at 2241.7 g/ha (Cotton (CT) [5]; 2 lb/acre) was 10%, the pest or weed control at 4483.4 g/ha (Cotton (CT) [5]; 4 lb/acre) was 10% and the pest or weed control at 560.425 g/ha (Turnip (TP) [6]; 0.5 lb/acre) was 100%. For the same compound, the pest or weed control at 1120.85 g/ha (Turnip (TP) [6]; 1 lb/acre) was 100%, the pest or weed control at 2241.7 g/ha (Turnip (TP) [6]; 2 lb/acre) was 100% and the pest or weed control at 4483.4 g/ha (Turnip (TP) [6]; 4 lb/acre) was 100%. It also gave a pest or weed control at 560.425 g/ha (Johnson grass (JG); 0.5 lb/acre) of 10%, a pest or weed control at 1120.85 g/ha (Johnson grass (JG); 1 lb/acre) of 10% and a pest or weed control at 2241.7 g/ha (Johnson grass (JG); 2 lb/acre) of 30%. The pest or weed control at 4483.4 g/ha (Johnson grass (JG); 4 lb/acre) was 60%, the pest or weed control at 560.425 g/ha (Bean (BN) [7]; 0.5 lb/acre) was 70% and the pest or weed control at 1120.85 g/ha (Bean (BN) [7]; 1 lb/acre) was 80%. It also gave a pest or weed control at 2241.7 g/ha (Bean (BN) [7]; 2 lb/acre) of 90%, a pest or weed control at 4483.4 g/ha (Bean (BN) [7]; 4 lb/acre) of 100% and a pest or weed control at 560.425 g/ha (Amaranth pigweed (PW); 0.5 lb/acre) of 10%. The pest or weed control at 1120.85 g/ha (Amaranth pigweed (PW); 1 lb/acre) was 10%, the pest or weed control at 2241.7 g/ha (Amaranth pigweed (PW); 2 lb/acre) was 30% and the pest or weed control at 4483.4 g/ha (Amaranth pigweed (PW); 4 lb/acre) was 50%. For the same compound, the pest or weed control at 560.425 g/ha (Corn (CN); 0.5 lb/acre) was 10%, the pest or weed control at 1120.85 g/ha (Corn (CN); 1 lb/acre) was 10% and the pest or weed control at 2241.7 g/ha (Corn (CN); 2 lb/acre) was 10%. It also gave a pest or weed control at 4483.4 g/ha (Corn (CN); 4 lb/acre) of 10%, a pest or weed control at 560.425 g/ha (Barnyard grass (BG); 0.5 lb/acre) of 10% and a pest or weed control at 1120.85 g/ha (Barnyard grass (BG); 1 lb/acre) of 50%. For the same compound, the pest or weed control at 2241.7 g/ha (Barnyard grass (BG); 2 lb/acre) was 70%, the pest or weed control at 4483.4 g/ha (Barnyard grass (BG); 4 lb/acre) was 90% and the pest or weed control at 560.425 g/ha (Cotton (CT) [8]; 0.5 lb/acre) was 100%. For the same compound, the pest or weed control at 1120.85 g/ha (Cotton (CT) [8]; 1 lb/acre) was 100%, the pest or weed control at 2241.7 g/ha (Cotton (CT) [8]; 2 lb/acre) was 100% and the pest or weed control at 4483.4 g/ha (Cotton (CT) [8]; 4 lb/acre) was 100%.
